Converted amounts (≈) assume the structure as drawn. Residues, ends and D or L forms follow the SMILES beside them.
Columns and labels:
in vitro = conditions: 25% (v/v) human serum, 24 h, 37 °C, 50 µM peptide, RP-HPLC peak area vs time zero
Description: The serum stability assay was carried out as previously described with some modifications. Briefly, tachyplesin variants were incubated in 25% (v/v) human serum diluted in phosphate-buffered saline (PBS) at a final concentration of 50 µM at 37 °C. Triplicates were collected at time 0 h and 24 h and the serum proteins were precipitated with acetonitrile (1:3 ratio) supplemented with 3% TFA. Samples were kept on ice for 10 min before centrifugation at 17,000× g for 10 min at 4 °C. The peptide containing supernatant of each sample was harvested and quantified using RP-HPLC (10 to 45% solvent B, 1%/min gradient). The percentage of peptide stability in human serum was calculated by comparing the area of the peptide peak obtained at 24 h to that at time 0 h. A linear peptide containing 18 amino acid residues ([…]) was included as a control susceptible to proteolytic degradation.

S. aureus ATCC 6538 = assay: MIC against planktonic bacteria (resazurin); type: cell-based, Staphylococcus aureus; conditions: Mueller Hinton Broth
Description: (§1) S. aureus ATCC 25923, S. aureus ATCC 6538, E. coli ATCC 25922, and E. coli DC2 CGSC 7139 were grown in Mueller Hinton Broth (Sigma Aldrich, St. Luis, USA). Bacterial cultures in the exponential growth phase were diluted to an OD600nm of 0.001 and seeded into 96-well plates. Peptides at different concentrations, starting at 64 µM and with two-fold serial dilutions (i.e., 64, 32, 16, 8, 4, 2, 1, 0.5, 0.25, 0.125 and 0.0625 µM), were incubated with cells; 0.05% (v/v) resazurin was added to the cultures the next day and the conversion to resorufin was measured after 1 h of incubation at 37 °C using a 565 nm excitation and 584 nm emission wavelength, as above.

S. aureus ATCC 25923 = assay: MIC against planktonic bacteria (resazurin); type: cell-based, Staphylococcus aureus; conditions: Mueller Hinton Broth
Description: as §1

[1] = Activity against preformed biofilm (resazurin metabolic activity); type: cell-based, Staphylococcus aureus; conditions: 24 h preformed biofilm, 4 h peptide treatment; read-out: CC50 (reduction of 50% of the metabolically active cell population)
Description: S. aureus ATCC 6538 (1 × 10^6 cfu/mL) was cultured in Tryptic Soy Broth, containing 0.25% (w/v) glucose and incubated in 96-well microtiter flat-bottomed polystyrene plates for 24 h at 37 °C. Preformed biofilms were then washed with Mueller Hinton Broth to remove non-adherent cells. Two-fold serial dilutions of each peptide (highest concentration tested was 32 µM and lowest was 0.25 µM) were added to the biofilms for 4 h. Untreated 24 h preformed biofilms were used as a control. The metabolic activity of biofilm-embedded cells was determined using a resazurin reduction fluorometric assay as previously described.

[2] = Hemolytic activity against human red blood cells; type: cell-based; conditions: at 64 µM peptide, human RBCs; read-out: RBCs lysed (hemolysis)
Description: (§2) A small amount of blood was collected from three healthy human donors. The blood was immediately diluted in PBS and centrifuged 4–5 times for 1 min at 4000 rpm to wash and separate the human red blood cells (RBCs). RBCs suspension (0.25% (v/v) in PBS) was incubated with peptides with two-fold serial dilutions of the peptide (highest concentration tested was 128 µM, and the lowest was 0.25 µM) in a 96-well plate. Melittin, a membrane disruptive peptide, was used as control. The plates were incubated for 1 h at 37 °C. After incubation, the plates were centrifuged for 5 min at 1000 rpm to pellet any non-lysed RBCs. A total of 100 µL of the supernatant were transferred to a new 96-well plate. The hemoglobin released into the supernatant from lysed cells was measured by absorbance at 415 nm using the Tecan infinite M1000Pro multiplate reader (Männedorf, Switzerland).

[3] = system: human red blood cells (RBCs); assay: Hemolytic activity against human red blood cells; type: cell-based; conditions: human RBCs 0.25% (v/v), 1 h, 37 °C; mean ± SEM
Description: as §2

E. coli ATCC 25922 = assay: MIC against planktonic bacteria (resazurin); type: cell-based, Escherichia coli; conditions: Mueller Hinton Broth
Description: as §1

E. coli DC2 CGSC 7139 = assay: MIC against planktonic bacteria (resazurin); type: cell-based, Escherichia coli; conditions: Mueller Hinton Broth
Description: as §1

[4] = Cytotoxicity assay (resazurin); type: cell-based, Human; conditions: ± SEM, n ≥ 3
Description: Cells were grown in cell culture flasks and incubated in a humidified atmosphere (5% CO2, 37 °C). The cancer cell lines HeLa and the control cell line HaCaT were grown in a DMEM medium supplemented with 1% (v/v) penicillin/streptomycin and 10% (v/v) fetal bovine serum (FBS). The cancer cell lines MM96L, HT144 and WM164 were grown in a RPMI medium supplemented with 1% (v/v) penicillin/[…], 10% (v/v) FBS, 20 mM L-glutamine, and 10 mM sodium pyruvate. Cell cultures were maintained by dilution upon reaching confluence, each 48–72 h. More information about the cell lines is available in Tables S2 and S3.
Cells were seeded into 96-well flat-bottom plates at 5 × 10^3 cells/well and incubated overnight. The medium was removed and replaced with 90 µL serum-free medium, 10 µL of 10x concentrated peptide solutions in PBS were added. PBS was added as blank and 0.1% (v/v) Triton X-100 was used to establish 100% of cell death. After 2 h incubation at 37 °C, 10 µL of filtered 0.05% (w/v) resazurin solution was added to each well [70]. Resazurin is converted to the pink and fluorescent compound resorufin by viable cells. After incubation overnight, the fluorescence intensity (λex = 565 nm and λem = 584 nm) was measured with the Tecan infinite M1000Pro multiplate reader (Männedorf, Switzerland).

[5] = HT144, 2 h peptide in serum-free medium
[6] = HaCaT non-cancerous control, 2 h peptide in serum-free medium
[7] = HeLa, 2 h peptide in serum-free medium
[8] = MM96L, 2 h peptide in serum-free medium
[9] = WM164, 2 h peptide in serum-free medium

## CC[C@H](C)[C@H](NC(=O)[C@H](CC(C)C)NC(=O)[C@H](CCC(N)=O)NC(=O)CNC(=O)[C@H](CO)NC(=O)CNC(=O)CNC(=O)CNC(=O)CNC(=O)[C@@H](N)CCCCN)C(=O)N[C@@H](CC(=O)O)C(=O)N[C@@H](CO)C(=O)N[C@@H](CCSC)C(=O)N[C@@H](C)C(=O)N[C@@H](CC(N)=O)C(=O)N[C@@H](CO)C(=O)N[C@@H](Cc1ccccc1)C(=O)N[C@H](C(=O)O)C(C)C [KGGGGSGQLIDSMANSFV, reference compound] (H-KGGGGSGQLIDSMANSFV-OH)
In vitro
  peptide remaining in human serum: fully degraded

## CC[C@H](C)[C@@H]1NC(=O)CNC(=O)[C@H](CCCNC(=N)N)NC(=O)[C@H](Cc2ccc(O)cc2)NC(=O)[C@@H]2CSSC[C@H](NC1=O)C(=O)N[C@@H](Cc1ccc(O)cc1)C(=O)N[C@@H](CCCNC(=N)N)C(=O)N[C@@H](CCCCN)C(=O)N[C@H](C(=O)N[C@@H](CCCNC(=N)N)C(N)=O)CSSC[C@H](NC(=O)[C@H](Cc1c[nH]c3ccccc13)NC(=O)[C@@H](N)CCCNC(=N)N)C(=O)N[C@@H](Cc1ccccc1)C(=O)N[C@@H](CCCNC(=N)N)C(=O)N[C@@H](C(C)C)C(=O)N2 [TII, Tachyplesin II] (HELM PEPTIDE1{R.W.C.F.R.V.C.Y.R.G.I.C.Y.R.K.C.R.[am]}$PEPTIDE1,PEPTIDE1,3:R3-16:R3|PEPTIDE1,PEPTIDE1,7:R3-12:R3$$$V2.0)
S. aureus ATCC 6538
  MIC: 4 to 8 µM
S. aureus ATCC 25923
  MIC: 1 to 4 µM
[1]
  Concentration reducing biofilm metabolic activity by 50%: 23.1 ± 2.9 µM
[2]
  hemolysis: 56%
[3]
  HC50 (concentration required to induce 50% lysis in RBCs): 55.4 ± 6.6 µM
E. coli ATCC 25922
  MIC: 0.125 to 0.5 µM
E. coli DC2 CGSC 7139
  MIC: 0.5 to 1 µM
[4]; [5]
  CC50: 2000 ± 100 nM
[4]; [6]
  CC50: 3700 ± 200 nM
[4]; [7]
  CC50: 18000 ± 3900 nM
[4]; [8]
  CC50: 1600 ± 100 nM
[4]; [9]
  CC50: 1600 ± 100 nM

## CC[C@H](C)[C@@H]1NC(=O)CNC(=O)[C@H](CCCNC(=N)N)NC(=O)[C@H](Cc2ccc(O)cc2)NC(=O)[C@@H]2CSSC[C@H](NC1=O)C(=O)N[C@@H](Cc1ccc(O)cc1)C(=O)N[C@@H](CCCNC(=N)N)C(=O)N[C@@H](CCCNC(=N)N)C(=O)N[C@H]1CSSC[C@H](NC(=O)[C@H](Cc3c[nH]c4ccccc34)NC(=O)[C@H](CCCCN)NC(=O)CNC(=O)[C@H](CCCNC(=N)N)NC1=O)C(=O)N[C@@H](Cc1ccccc1)C(=O)N[C@@H](CCCNC(=N)N)C(=O)N[C@@H](C(C)C)C(=O)N2 [cTI, Cyclic Tachyplesin I] (HELM PEPTIDE1{C.F.R.V.C.Y.R.G.I.C.Y.R.R.C.R.G.K.W}$PEPTIDE1,PEPTIDE1,1:R3-14:R3|PEPTIDE1,PEPTIDE1,5:R3-10:R3|PEPTIDE1,PEPTIDE1,1:R1-18:R2$$$V2.0)
S. aureus ATCC 6538
  MIC: 8 µM (≈ 18.4 µg/mL)
S. aureus ATCC 25923
  MIC: 2 to 8 µM
[1]
  Concentration reducing biofilm metabolic activity by 50%: 17.8 ± 3.6 µM
[3]
  HC50 (concentration required to induce 50% lysis in RBCs): 106.9 ± 21.0 µM
E. coli ATCC 25922
  MIC: 1 µM (≈ 2.3 µg/mL)
E. coli DC2 CGSC 7139
  MIC: 4 µM (≈ 9.22 µg/mL)
[4]; [5]
  CC50: 1400 ± 100 nM
[4]; [6]
  CC50: 7900 ± 500 nM
[4]; [7]
  CC50: 6700 ± 600 nM
[4]; [8]
  CC50: 1300 ± 100 nM
[4]; [9]
  CC50: 2700 ± 100 nM
In vitro
  peptide remaining in human serum: did not degrade

## CC[C@H](C)[C@@H]1NC(=O)CNC(=O)[C@H](CCCNC(=N)N)NC(=O)[C@H](Cc2ccc(O)cc2)NC(=O)[C@@H]2CSSC[C@H](NC1=O)C(=O)N[C@@H](Cc1ccc(O)cc1)C(=O)N[C@@H](CCCNC(=N)N)C(=O)N[C@@H](CCCCN)C(=O)N[C@H]1CSSC[C@H](NC(=O)[C@H](Cc3c[nH]c4ccccc34)NC(=O)[C@H](CCCNC(=N)N)NC(=O)CNC(=O)[C@H](CCCNC(=N)N)NC1=O)C(=O)N[C@@H](Cc1ccccc1)C(=O)N[C@@H](CCCNC(=N)N)C(=O)N[C@@H](C(C)C)C(=O)N2 [cTII, Cyclic Tachyplesin II] (HELM PEPTIDE1{C.F.R.V.C.Y.R.G.I.C.Y.R.K.C.R.G.R.W}$PEPTIDE1,PEPTIDE1,1:R3-14:R3|PEPTIDE1,PEPTIDE1,5:R3-10:R3|PEPTIDE1,PEPTIDE1,1:R1-18:R2$$$V2.0)
S. aureus ATCC 6538
  MIC: 8 µM (≈ 18.4 µg/mL)
S. aureus ATCC 25923
  MIC: 2 to 8 µM
[1]
  Concentration reducing biofilm metabolic activity by 50%: 19.4 ± 1.5 µM
[3]
  HC50 (concentration required to induce 50% lysis in RBCs): 64.1 ± 9.4 µM
E. coli ATCC 25922
  MIC: 1 to 2 µM
E. coli DC2 CGSC 7139
  MIC: 4 to 8 µM
[4]; [5]
  CC50: 800 ± 40 nM
[4]; [6]
  CC50: 2400 ± 300 nM
[4]; [7]
  CC50: 7200 ± 400 nM
[4]; [8]
  CC50: 1100 ± 100 nM
[4]; [9]
  CC50: 2400 ± 300 nM

## CC[C@H](C)[C@@H]1NC(=O)CNC(=O)[C@H](CCCNC(=N)N)NC(=O)[C@H](Cc2ccc(O)cc2)NC(=O)[C@@H]2CSSC[C@H](NC1=O)C(=O)N[C@@H](Cc1ccc(O)cc1)C(=O)N[C@@H](CCCNC(=N)N)C(=O)N[C@@H](CCCCN)C(=O)N[C@H]1CSSC[C@H](NC(=O)[C@H](Cc3c[nH]c4ccccc34)NC(=O)[C@H](CCCCN)NC(=O)CNC(=O)[C@H](CCCNC(=N)N)NC1=O)C(=O)N[C@@H](Cc1ccccc1)C(=O)N[C@@H](CCCNC(=N)N)C(=O)N[C@@H](C(C)C)C(=O)N2 [cTIII, Cyclic Tachyplesin III] (HELM PEPTIDE1{C.F.R.V.C.Y.R.G.I.C.Y.R.K.C.R.G.K.W}$PEPTIDE1,PEPTIDE1,1:R3-14:R3|PEPTIDE1,PEPTIDE1,5:R3-10:R3|PEPTIDE1,PEPTIDE1,1:R1-18:R2$$$V2.0)
S. aureus ATCC 6538
  MIC: 8 µM (≈ 18.2 µg/mL)
S. aureus ATCC 25923
  MIC: 2 to 8 µM
[1]
  Concentration reducing biofilm metabolic activity by 50%: 18 ± 1.4 µM
[3]
  HC50 (concentration required to induce 50% lysis in RBCs): >128 µM
E. coli ATCC 25922
  MIC: 1 to 2 µM
E. coli DC2 CGSC 7139
  MIC: 4 to 8 µM
[4]; [5]
  CC50: 900 ± 30 nM
[4]; [6]
  CC50: 7500 ± 300 nM
[4]; [7]
  CC50: 9300 ± 400 nM
[4]; [8]
  CC50: 1700 ± 100 nM
[4]; [9]
  CC50: 1300 ± 100 nM

Reference: article PMC6747087, “Characterization of Tachyplesin Peptides and Their Cyclized Analogues to Improve Antimicrobial and Anticancer Properties” (International Journal of Molecular Sciences, 2019)
